What was measured:
[1] = tested on: lipopolysaccharide-stimulated macrophages; test: PGE2 released from LPS-stimulated macrophages; type: cell-based; settings: macrophages incubated 24 hours, then 100 ng/ml LPS 8 hours; about 3000 pg/ml without CNA (FIG. 7)
Experimental: As a further indication of the ability of CNA to inhibit COX enzymes, FIG. 7 depicts the inhibition of PGE2 released from stimulated macrophages in the presence of varying amounts of CNA. Confluent macrophages were incubated with CNA or linoleic acid (LA; control) at the concentrations shown for 24 hours in 0.5% fetal bovine serum then were stimulated with 100 ng/ml lipopolysaccharide (LPS) for 8 hours. The level of PGE2 in the medium was determined by ELISA assay.

[2] = target: T1, ovine cyclooxygenase-1 (Ovis aries, UniProt P05979); test: ovine COX-1 inhibition (total prostanoids by ELISA); type: biochemical; settings: pure ovine COX-1, 5 min co-incubation, 37° C. (FIG. 5)
T1 sequence (P05979 25-600): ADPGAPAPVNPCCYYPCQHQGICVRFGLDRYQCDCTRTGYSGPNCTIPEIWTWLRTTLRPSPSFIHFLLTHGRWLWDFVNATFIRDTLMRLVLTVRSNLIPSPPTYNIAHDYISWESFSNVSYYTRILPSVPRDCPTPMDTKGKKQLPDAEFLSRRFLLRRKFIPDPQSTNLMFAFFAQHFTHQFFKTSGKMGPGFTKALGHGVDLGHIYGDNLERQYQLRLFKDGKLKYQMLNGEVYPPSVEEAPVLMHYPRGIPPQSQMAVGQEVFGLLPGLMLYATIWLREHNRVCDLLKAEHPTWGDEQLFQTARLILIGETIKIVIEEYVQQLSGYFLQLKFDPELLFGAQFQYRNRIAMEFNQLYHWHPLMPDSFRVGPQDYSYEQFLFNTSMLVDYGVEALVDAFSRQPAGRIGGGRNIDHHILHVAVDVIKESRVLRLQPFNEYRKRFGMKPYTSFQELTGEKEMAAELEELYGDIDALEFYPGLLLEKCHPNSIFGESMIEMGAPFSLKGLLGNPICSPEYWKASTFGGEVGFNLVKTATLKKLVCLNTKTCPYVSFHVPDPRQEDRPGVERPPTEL
Experimental: (§1) Determination of thromboxane B2 level by ELISA: After the whole blood platelet aggregation, the collagen-stimulated blood was centrifuged for plasma and stored at −80° C. The plasma thromboxane level was determined by ELISA according to the manufacturer's instructions. Inhibitory effects on ovine COX-1 and COX-2: COX-1 or COX-2, heme and reaction buffer were pre-incubated under 37° C. CNA or DMSO (control) was added to the system and co-incubated for 5 minutes. Arachidonic acid was added and the reaction was maintained at 37° C. for 2 minutes. The catalysis reaction was terminated by adding HCL. Total prostanoids were measured by ELISA according to manufacturer's instructions.

[3] = tested on: thromboxane B2; test: thromboxane B2 level in collagen-stimulated blood by ELISA; type: cell-based, guinea pigs; settings: collagen-stimulated guinea pig blood, plasma ELISA (FIG. 4)
Experimental: (§2) Female guinea pigs and diets were purchased from Harlan Teklad (Madison, Wis). Whole Blood Aggregometer, collagen and ADP were purchased from Chrono-log Corp. (Havertown, Pa.). All ELISA kits were purchased from Cayman Chemical (Ann Arbor, Mich.).
as §1

[4] = tested on: collagen-induced whole blood platelet aggregation; test: collagen-induced whole blood platelet aggregation; type: cell-based, guinea pigs; settings: guinea pig heparinized whole blood, collagen 4 μg/ml, 2 min preincubation (FIG. 2)
Experimental: as §2
(§3) Whole blood platelet aggregation: Guinea Pigs were anesthetized with a combination of ketamine (35 mg/kg) and xylazine (10 mg/kg) by subcutaneous administration. Heparinized blood (20 unit/ml) was obtained by cardiac puncture. Within 5-10 minutes, the blood (1.0 ml) was preheated at 37° C. and then incubated with free fatty acid or DMSO (control) for 2 minutes. Collagen (4 μg/ml) or ADP (10 μM) was next added to the blood to start the platelet aggregation process. Platelet aggregation was measured using an Aggregometer.

[5] = tested on: 3T3-L1 adipocytes; test: cellular glycerol in 3T3-L1 adipocytes; type: cell-based
Source text: (§4) CNA was synthesized from NA (purchased from Nu-Chek Corp., Elysian, Minn.), using the method described in Park, Y. et al., Lipids 34 (1999) 235-241 for producing CLA from linoleic acid; the CNA product synthesized contained 97.3% CNA (c10, t12, 33.4%; t11, c13, 32.9%; t10, t12/t11, t13, 23.4%; other isomers, 7.6%) with the remainder as unreacted NA. CLA was synthesized as described by Park, et al., supra; the CLA product synthesized contained 97.8% CLA (c9, t11/t9, c11, 45.7%; t10, c12, 47.6%; t9, t11/t10, t12, 1.7%; others, 2.8%) with the remainder as unreacted linoleic acid.
(§5) Cultured cells were treated with fatty acid-albumin complexes for 2 days, beginning at day 6 post-differentiation. Data were analyzed as log value with a two-way ANOVA using fatty acid (as treatments) and experiment. If the interaction between treatment and experiment was significant, this interaction was used as the error term. Additional experimental details were as described in Park, et al., supra.
(§6) Treatment values indicate the concentration of test materials (μM); all treatment groups included albumin at 100 μM. Reported values are mean±S.E. (n=8, collected from two independent experiments). […] CNA inhibited LPL activity in cultured 3T3-L1 adipocytes (FIG. 1A). In addition, CNA enhanced glycerol release (FIG. 1B) and reduced intracellular triacylglycerol (FIG. 1C) and glycerol (FIG. 1D) in the same cells. […]

[6] = tested on: 3T3-L1 adipocytes; test: glycerol release in 3T3-L1 adipocytes; type: cell-based
Source text: as §4, §5, §6

[7] = tested on: ADP-induced whole blood platelet aggregation; test: ADP-induced whole blood platelet aggregation; type: cell-based, guinea pigs; settings: guinea pig heparinized whole blood, ADP 10 μM, 2 min preincubation (FIG. 3)
Experimental: as §2, §3

[8] = target: T2, ovine cyclooxygenase-2 (Ovis aries, UniProt P79208); test: ovine COX-2 inhibition (total prostanoids by ELISA); type: biochemical; settings: pure ovine COX-2, 5 min co-incubation, 37° C. (FIG. 6)
T2 sequence (P79208 17-603): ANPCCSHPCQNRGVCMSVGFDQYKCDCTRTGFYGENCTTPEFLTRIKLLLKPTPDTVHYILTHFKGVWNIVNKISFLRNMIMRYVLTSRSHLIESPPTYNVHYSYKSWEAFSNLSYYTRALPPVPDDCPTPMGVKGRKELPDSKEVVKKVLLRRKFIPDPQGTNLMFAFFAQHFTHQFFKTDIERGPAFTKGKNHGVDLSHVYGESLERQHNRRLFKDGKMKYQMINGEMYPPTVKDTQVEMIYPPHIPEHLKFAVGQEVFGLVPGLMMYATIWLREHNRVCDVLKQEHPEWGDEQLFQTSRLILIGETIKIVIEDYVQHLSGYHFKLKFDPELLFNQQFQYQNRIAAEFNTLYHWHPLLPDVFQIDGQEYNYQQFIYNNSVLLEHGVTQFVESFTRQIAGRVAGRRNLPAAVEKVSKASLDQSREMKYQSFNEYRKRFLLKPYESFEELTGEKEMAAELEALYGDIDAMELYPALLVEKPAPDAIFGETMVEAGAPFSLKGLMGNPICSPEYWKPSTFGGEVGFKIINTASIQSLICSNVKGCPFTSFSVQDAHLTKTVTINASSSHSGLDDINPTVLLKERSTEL
Experimental: as §1

[9] = Effects of CNA and CLA on body composition (diet feeding); type: in vivo, mice; settings: 0.3% in diet, 2 weeks; for Body weight gain per animal: female ICR mice
Source text: Female ICR mice (4-week-old) and semi-purified diets (TD94060, 99% basal mix) were purchased from Harlan Sprague Dawley (Madison, Wis.) and Harlan Teklad (Madison, Wis.), respectively. CLA was obtained from Natural Lipids Ltd AS, Hovdebygda, Norway; its composition was 88.7% CLA (c9, t11/t9, c11, 41.9%; t10, c12, 43.5%; t9, t11/10, t12, 1.5%; others, 1.8%) with the remainder as oleic acid, 5.6%; palmitic acid, 1.4%; and linoleic acid, 0.5%. CNA was kindly provided by the US Food and Drug Administration; it was 98.6% CNA (c10, t12, 42.3%; t11, c13, 48.0%; t10, t12/t11, t13, 5.1%; others, 3.2%) with the remainder as unreacted NA. CLA or CNA was added to diets at the expense of corn oil to maintain 5.5% fat. Diet was stored at −20° C. until use. Mice were housed individually in a windowless room with a 12-h light-dark cycle in strict accordance to guidelines established by the Research Animal Resources Center of University of Wisconsin-Madison. Diet and water, available ad libitum, were freshly provided three times per week.
After a 5 day adaptation period, mice were randomly separated into 3 groups and fed control diet, diet supplemented with 0.3% CLA, or diet supplemented with 0.3% CNA for 2 weeks. 0.3% of diet CLA is a sub-optimal dose for CLA's effects on body composition.
Results are mean±S.E. (n=6).

[10] = tested on: 3T3-L1 adipocytes; test: cellular triacylglycerol in 3T3-L1 adipocytes; type: cell-based
Source text: as §4, §5, §6

[11] = target: T3, lipoprotein lipase (LPL) (Mus musculus, UniProt P11152); test: heparin-releasable LPL activity in 3T3-L1 adipocytes; type: cell-based
T3 construct: endogenous in cells; host or cells: 3T3-L1 adipocytes
T3 sequence (P11152 28-474): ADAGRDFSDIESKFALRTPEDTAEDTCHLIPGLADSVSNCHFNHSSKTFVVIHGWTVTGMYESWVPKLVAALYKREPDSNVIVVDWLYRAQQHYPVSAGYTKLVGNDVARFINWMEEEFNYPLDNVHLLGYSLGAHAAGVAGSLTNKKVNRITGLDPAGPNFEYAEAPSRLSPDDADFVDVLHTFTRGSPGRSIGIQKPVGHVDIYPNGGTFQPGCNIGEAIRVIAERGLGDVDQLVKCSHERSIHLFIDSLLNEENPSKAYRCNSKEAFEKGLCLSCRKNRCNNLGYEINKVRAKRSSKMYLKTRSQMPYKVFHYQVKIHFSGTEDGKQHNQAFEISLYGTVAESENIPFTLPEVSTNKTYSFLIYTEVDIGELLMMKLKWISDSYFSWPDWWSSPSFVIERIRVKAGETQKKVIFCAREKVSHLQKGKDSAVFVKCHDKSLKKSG
Source text: as §4, §5, §6

Row | COX-1 activity [2] | COX-2 activity [8] | LPL activity ([11]; cultured 3T3-L1 adipocytes, fatty acid-albumin complexes 2 days, albumin 100 μM (FIG. 1A)) | LPL activity ([11]; 3T3-L1 adipocytes, at 50 or 100 μM) | Molecule | level of PGE2 in the medium [1] | thromboxane B2 level [3] | collagen-stimulated platelet aggregation [4] | intracellular glycerol ([5]; 2 days, albumin 100 μM (FIG. 1D)) | glycerol release ([6]; 2 days, albumin 100 μM (FIG. 1B)) | ADP-stimulated platelet aggregation [7] | Body weight gain per animal [9] [g] | amount of whole body water, protein and ash ([9]; mice, in words) | body fat mass gain ([9]; mice, in words) | intracellular triacylglycerol ([10]; 2 days, albumin 100 μM (FIG. 1C)) | intracellular glycerol ([5]; at 50 or 100 μM) | glycerol release ([6]; at 50 or 100 μM) | intracellular triacylglycerol ([10]; at 50 or 100 μM)
1 | inhibited | inhibited | inhibited | – | conjugated nonadecadienoic acid [CNA] | less than 1000 pg/ml | reduced | inhibited | reduced | enhanced | inhibited | 0.2 | enhanced | reduced | reduced | – | – | –
2 | – | – | – | – | Conjugated linoleic acid [CLA, reference compound] | – | – | – | – | – | – | 1.3 | – | – | – | – | – | –
3 | – | – | – | ineffective | CCCCC/C=C\C/C=C\CCCCCCCCC(=O)O [NA, c10, c13 nonadecadienoic acid, reference compound] | – | – | – | – | – | – | – | – | – | – | ineffective | ineffective | ineffective
